Data as given in patent US20200239530A1, “COMPOUNDS AND METHODS OF MODULATING PROTEIN DEGRADATION” (Vividion Therapeutics, Inc., priority 2017, published 2020).

What was measured:
Assay in all cases: Cysteine liganding, probe competition
Format in all cases: binding
[1] = biological target: T1, RNF20 E3 ubiquitin-protein ligase BRE1A (Homo sapiens, UniProt Q5VTR2)
T1 construct: Cells were resuspended in cold PBS on ice and sonicated with a probe sonicator to achieve lysis; endogenous in cells
Method in brief: (§1)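 Read-out is loss of desthiobiotin iodoacetamide labelling at cysteines, measured on streptavidin-enriched tryptic peptides. Compound preincubation ran 1 hr at 25° C in PBS lysate holding 5 mg/ml proteome before the probe was added.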

[2] = biological target: T2, TNFAIP3 Tumor necrosis factor alpha-induced protein 3 (Homo sapiens, UniProt P21580)
T2 construct: Cells were resuspended in cold PBS on ice and sonicated with a probe sonicator to achieve lysis; endogenous in cells
T2 sequence (P21580 1-790): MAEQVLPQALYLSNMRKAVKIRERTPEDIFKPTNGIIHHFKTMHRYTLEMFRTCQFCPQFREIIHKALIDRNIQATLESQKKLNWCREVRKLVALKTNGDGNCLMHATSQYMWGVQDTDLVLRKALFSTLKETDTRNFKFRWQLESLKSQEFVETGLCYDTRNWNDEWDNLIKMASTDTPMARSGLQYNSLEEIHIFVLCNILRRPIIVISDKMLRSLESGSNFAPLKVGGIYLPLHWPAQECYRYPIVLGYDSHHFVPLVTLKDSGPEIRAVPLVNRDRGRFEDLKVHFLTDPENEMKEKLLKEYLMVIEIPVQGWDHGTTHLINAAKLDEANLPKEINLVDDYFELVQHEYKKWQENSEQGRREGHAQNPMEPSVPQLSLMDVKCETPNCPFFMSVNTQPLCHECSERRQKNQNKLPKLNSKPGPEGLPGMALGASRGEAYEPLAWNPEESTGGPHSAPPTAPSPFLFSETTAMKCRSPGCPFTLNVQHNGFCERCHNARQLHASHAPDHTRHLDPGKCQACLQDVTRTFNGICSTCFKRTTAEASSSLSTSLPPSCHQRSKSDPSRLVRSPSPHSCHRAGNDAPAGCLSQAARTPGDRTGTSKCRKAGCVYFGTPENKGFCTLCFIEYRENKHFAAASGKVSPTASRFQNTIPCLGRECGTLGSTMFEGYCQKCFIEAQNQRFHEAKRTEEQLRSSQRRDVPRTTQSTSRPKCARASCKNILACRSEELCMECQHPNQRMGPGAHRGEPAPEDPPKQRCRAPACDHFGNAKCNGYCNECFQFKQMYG
Method in brief: as §1

[3] = biological target: T3, ZNF318 Zinc finger protein 318 (Homo sapiens, UniProt Q5VUA4)
T3 construct: Cells were resuspended in cold PBS on ice and sonicated with a probe sonicator to achieve lysis; endogenous in cells
Method in brief: as §1

[4] = TNFAIP3 Res# 54, uniprot P21580

T3 sequence (Q5VUA4 whole entry): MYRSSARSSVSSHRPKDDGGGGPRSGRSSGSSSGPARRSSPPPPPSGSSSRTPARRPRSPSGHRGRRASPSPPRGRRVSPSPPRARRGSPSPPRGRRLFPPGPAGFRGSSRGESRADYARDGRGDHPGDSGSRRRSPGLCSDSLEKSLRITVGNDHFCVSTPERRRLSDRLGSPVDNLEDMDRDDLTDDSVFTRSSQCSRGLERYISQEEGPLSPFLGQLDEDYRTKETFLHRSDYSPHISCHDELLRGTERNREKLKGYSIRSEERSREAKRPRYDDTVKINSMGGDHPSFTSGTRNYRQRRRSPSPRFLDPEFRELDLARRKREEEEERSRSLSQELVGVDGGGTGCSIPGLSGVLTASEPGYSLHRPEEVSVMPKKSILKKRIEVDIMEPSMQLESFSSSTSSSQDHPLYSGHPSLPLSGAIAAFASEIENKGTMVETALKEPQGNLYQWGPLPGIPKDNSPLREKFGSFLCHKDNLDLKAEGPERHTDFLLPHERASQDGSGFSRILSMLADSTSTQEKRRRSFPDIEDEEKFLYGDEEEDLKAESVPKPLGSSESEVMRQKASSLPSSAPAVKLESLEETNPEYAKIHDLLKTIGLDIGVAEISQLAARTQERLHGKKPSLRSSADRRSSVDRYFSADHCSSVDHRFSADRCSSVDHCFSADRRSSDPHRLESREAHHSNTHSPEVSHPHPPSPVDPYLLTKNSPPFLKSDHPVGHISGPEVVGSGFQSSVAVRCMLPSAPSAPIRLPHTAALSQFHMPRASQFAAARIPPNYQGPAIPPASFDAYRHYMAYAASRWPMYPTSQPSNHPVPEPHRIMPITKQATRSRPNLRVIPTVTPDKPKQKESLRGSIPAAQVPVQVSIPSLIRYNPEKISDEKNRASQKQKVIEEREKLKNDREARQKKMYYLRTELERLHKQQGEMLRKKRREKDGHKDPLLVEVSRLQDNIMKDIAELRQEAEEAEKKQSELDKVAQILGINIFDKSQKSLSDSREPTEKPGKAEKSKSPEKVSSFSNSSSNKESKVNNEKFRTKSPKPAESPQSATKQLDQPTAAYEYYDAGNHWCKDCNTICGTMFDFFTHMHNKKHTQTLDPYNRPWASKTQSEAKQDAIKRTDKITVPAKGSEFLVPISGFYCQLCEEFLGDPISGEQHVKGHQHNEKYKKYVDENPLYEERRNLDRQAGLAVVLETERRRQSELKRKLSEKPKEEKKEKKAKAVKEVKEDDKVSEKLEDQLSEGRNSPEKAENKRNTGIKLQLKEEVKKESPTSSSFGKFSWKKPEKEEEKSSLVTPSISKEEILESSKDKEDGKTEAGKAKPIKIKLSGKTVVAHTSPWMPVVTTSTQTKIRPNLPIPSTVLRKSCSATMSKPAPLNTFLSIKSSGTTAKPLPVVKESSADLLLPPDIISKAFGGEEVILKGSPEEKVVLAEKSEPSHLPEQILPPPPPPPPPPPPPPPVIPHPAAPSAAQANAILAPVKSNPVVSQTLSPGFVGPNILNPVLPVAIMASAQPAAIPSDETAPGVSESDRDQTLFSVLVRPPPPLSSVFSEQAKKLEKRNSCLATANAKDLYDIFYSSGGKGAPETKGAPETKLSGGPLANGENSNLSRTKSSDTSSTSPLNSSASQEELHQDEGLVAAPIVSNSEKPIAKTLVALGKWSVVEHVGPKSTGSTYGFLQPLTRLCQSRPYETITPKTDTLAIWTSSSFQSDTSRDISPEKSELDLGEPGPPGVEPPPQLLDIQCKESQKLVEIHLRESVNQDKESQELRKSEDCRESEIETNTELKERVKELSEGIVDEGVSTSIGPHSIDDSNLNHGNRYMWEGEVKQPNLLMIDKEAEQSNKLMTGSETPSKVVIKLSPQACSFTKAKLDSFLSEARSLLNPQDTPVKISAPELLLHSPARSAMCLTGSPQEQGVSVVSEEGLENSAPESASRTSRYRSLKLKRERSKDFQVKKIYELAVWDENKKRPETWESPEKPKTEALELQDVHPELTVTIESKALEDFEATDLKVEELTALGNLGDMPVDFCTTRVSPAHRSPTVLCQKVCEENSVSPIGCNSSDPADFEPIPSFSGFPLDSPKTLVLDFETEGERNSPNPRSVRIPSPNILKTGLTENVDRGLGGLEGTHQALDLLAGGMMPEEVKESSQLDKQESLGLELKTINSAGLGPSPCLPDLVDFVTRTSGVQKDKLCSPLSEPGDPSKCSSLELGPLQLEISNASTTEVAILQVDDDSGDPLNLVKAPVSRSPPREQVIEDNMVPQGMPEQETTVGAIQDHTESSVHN
T1 sequence (Q5VTR2 whole entry): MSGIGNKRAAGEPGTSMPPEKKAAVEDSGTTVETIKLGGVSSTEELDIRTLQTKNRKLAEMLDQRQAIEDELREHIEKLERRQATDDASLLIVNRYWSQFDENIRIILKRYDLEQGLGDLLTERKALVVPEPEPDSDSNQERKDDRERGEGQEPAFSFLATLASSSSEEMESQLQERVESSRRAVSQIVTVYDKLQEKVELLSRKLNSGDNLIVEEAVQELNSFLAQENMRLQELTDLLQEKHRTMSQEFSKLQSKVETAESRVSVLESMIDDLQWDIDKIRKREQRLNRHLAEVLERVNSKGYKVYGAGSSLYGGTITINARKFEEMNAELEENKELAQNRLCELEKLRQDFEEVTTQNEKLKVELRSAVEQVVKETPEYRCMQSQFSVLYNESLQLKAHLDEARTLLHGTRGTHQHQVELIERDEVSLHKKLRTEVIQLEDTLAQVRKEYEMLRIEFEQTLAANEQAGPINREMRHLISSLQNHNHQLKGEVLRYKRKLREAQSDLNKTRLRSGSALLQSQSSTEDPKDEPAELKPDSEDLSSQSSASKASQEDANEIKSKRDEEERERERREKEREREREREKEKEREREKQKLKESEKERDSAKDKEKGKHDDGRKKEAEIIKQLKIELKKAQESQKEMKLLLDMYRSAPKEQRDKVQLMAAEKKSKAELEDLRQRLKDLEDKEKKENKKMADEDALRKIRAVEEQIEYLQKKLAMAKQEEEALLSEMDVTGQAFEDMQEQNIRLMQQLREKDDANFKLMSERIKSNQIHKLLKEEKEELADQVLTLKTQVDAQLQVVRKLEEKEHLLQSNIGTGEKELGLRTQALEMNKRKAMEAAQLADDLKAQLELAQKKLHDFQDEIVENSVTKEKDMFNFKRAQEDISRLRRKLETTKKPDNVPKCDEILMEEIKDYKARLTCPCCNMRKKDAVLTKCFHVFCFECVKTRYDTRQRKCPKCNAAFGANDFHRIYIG

Structure (SMILES) | Liganded ([1]; RNF20 Res# 383, uniprot Q5VTR2) | Liganded [2, 4] | Liganded ([2]; TNFAIP3 Res# 536, uniprot P21580) | Liganded ([2]; TNFAIP3 Res# 579, uniprot P21580) | Liganded ([3]; ZNF318 Res# 1681, uniprot Q5VUA4) | 100 Max ([1]; uniprot Q5VTR2) | 100 ave ([1]; uniprot Q5VTR2) | 500 Max ([1]; uniprot Q5VTR2) | 500 ave ([1]; uniprot Q5VTR2) | 100 Max ([3]; uniprot Q5VUA4) | 100 ave ([3]; uniprot Q5VUA4) | 500 Max ([3]; uniprot Q5VUA4) | 500 ave ([3]; uniprot Q5VUA4)
COc1ccc2c(c1)CCCN2C(=O)CCl [KB02] | YES | YES | YES | YES | YES |  |  |  |  |  |  |  | 
O=C(CCl)Nc1cc(C(F)(F)F)cc(C(F)(F)F)c1 [KBO3] |  | YES |  |  |  | 11.0 | 0.6 | 37.3 | 32.6 | −1.63 | −8.115 | 55.07 | 40.555
